From article PMC12245108 (Advanced Science, 2025)
Where a SMILES comes first, the peptide text is derived from it. The star is where a group is joined. NHCH2CN = N#CCN*

Assays:
[1] = target: MPXV I7L protease (Monkeypox virus, UniProt Q8V512); assay: biochemical; conditions: for inhibition at 100 µM: pH 7.5, read-out: inhibition rate
[2] = system: HeLa cells
[3] = in vitro; conditions: human
[4] = system: Vaccinia virus; assay: microbe, parasite or virus in culture; format: cell-based; conditions: Orthopoxvirus vaccinia, HeLa, 24 h, read-out: EC50 for vaccinia virus replication inhibition

Structure (SMILES) | inhibition at 100 µM [1] [%] | IC50 [1] [nM] | also measured
Cc1cccc(C)c1OCC(=O)N[C@@H](Cc1ccccc1)[C@@H](O)C[C@H](Cc1ccccc1)NC(=O)[C@H](C(C)C)N1CCCNC1=O [Lopinavir, reference compound] | < 50 |  | 
CC[C@H](C)[C@H](NC(C)=O)C(=O)N[C@H](C(=O)N[C@@H](CC(N)=O)C(=O)N[C@@H](C)C(=O)NCC#N)[C@@H](C)O [compound 4, (S)-2-((2S,3R)-2-((2S,3S)-2-acetamido-3-methylpentanamido)-3-hydroxybutanamido)-N^1-((S)-1-((cyanomethyl)amino)-1-oxopropan-2-yl)succinamide] (Ac-ITNA-NHCH2CN) |  | 1620 | 
CC[C@H](C)[C@H](NC(C)=O)C(=O)N[C@@H](Cc1ccccc1)C(=O)N[C@@H](Cc1ccccc1)C(=O)N[C@@H](C)C(=O)NCC#N [compound 1, (2S,3S)-2-acetamido-N-((S)-1-(((S)-1-(((S)-1-((cyanomethyl)amino)-1-oxopropan-2-yl)amino)-1-oxo-3-phenylpropan-2-yl)amino)-1-oxo-3-phenylpropan-2-yl)-3-methylpentanamide] (Ac-IFFA-NHCH2CN) |  | 171 | 
CC(C)(C)NC(=O)N[C@H](C(=O)N1C[C@H]2[C@@H]([C@H]1C(=O)NC(CC1CCC1)C(=O)C(N)=O)C2(C)C)C(C)(C)C (stereo partly shown) [Boceprevir, reference compound] | < 50 |  | 
CCCC[C@H](NC(=O)[C@@H]1[C@@H]2[C@H](CN1C(=O)[C@@H](NC(=O)NC1(CS(=O)(=O)C(C)(C)C)CCCCC1)C(C)(C)C)C2(C)C)C(=O)C(=O)NC1CC1 [Narlaprevir, reference compound] | < 50 |  | 
CC[C@H](C)[C@H](NC(=O)[C@@H](C)c1ccccc1)C(=O)N[C@@H](C)C(=O)NCC#N [compound 11, (2S,3S)-N-((S)-1-((cyanomethyl)amino)-1-oxopropan-2-yl)-3-methyl-2-((S)-2-phenylpropanamido)pentanamide] |  | 69 | cytotoxicity [2]: no detectable cytotoxicity; CC50 [3]: > 400000 nM; EC50 [4]: 6000 nM
CC(C)(C)[C@H](NC(=O)C(F)(F)F)C(=O)N1C[C@H]2[C@@H]([C@H]1C(=O)N[C@H](C#N)C[C@@H]1CCNC1=O)C2(C)C [Nirmatrelvir, reference compound] | < 50 |  | 
CC[C@H](C)[C@H](NC(=O)[C@H](Cc1ccc(O)cc1)NC(=O)[C@@H]1CCCN1C(C)=O)C(=O)N[C@@H](C)C(=O)NCC#N [compound 7, (S)-1-acetyl-N-((S)-1-(((2S,3S)-1-(((S)-1-((cyanomethyl)amino)-1-oxopropan-2-yl)amino)-3-methyl-1-oxopentan-2-yl)amino)-3-(4-hydroxyphenyl)-1-oxopropan-2-yl)pyrrolidine-2-carboxamide] (Ac-PYIA-NHCH2CN) |  | 241 ± 29 | 
CC[C@H](C)[C@H](NC(=O)Cc1ccccc1)C(=O)N[C@@H](C)C(=O)NCC#N [compound 10, (2S,3S)-N-((S)-1-((cyanomethyl)amino)-1-oxopropan-2-yl)-3-methyl-2-(2-phenylacetamido)pentanamide] |  | 122 | cytotoxicity [2]: no detectable cytotoxicity; CC50 [3]: > 400000 nM; EC50 [4]: 6300 nM
Cn1cnc(Cn2c(=O)[nH]/c(=N\c3cc4cn(C)nc4cc3Cl)n(Cc3cc(F)c(F)cc3F)c2=O)n1 [Ensitrelvir, reference compound] | < 50 |  | 
CCC[C@H](NC(=O)[C@@H]1[C@H]2CCC[C@H]2CN1C(=O)[C@@H](NC(=O)[C@@H](NC(=O)c1cnccn1)C1CCCCC1)C(C)(C)C)C(=O)C(=O)NC1CC1 [Telaprevir, reference compound] | < 50 |  | 
CC[C@H](C)[C@H](NC(C)=O)C(=O)N[C@@H](Cc1ccccc1)C(=O)N[C@@H](CC(N)=O)C(=O)N[C@@H](C)C(=O)NCC#N [compound 8, (S)-2-((S)-2-((2S,3S)-2-acetamido-3-methylpentanamido)-3-phenylpropanamido)-N^1-((S)-1-((cyanomethyl)amino)-1-oxopropan-2-yl)succinamide] (Ac-IFNA-NHCH2CN) |  | 71 | 
CCCCCCCCCCCCCCCCOCCCOP(=O)(O)CO[C@H](CO)Cn1ccc(N)nc1=O [Brincidofovir, reference compound] |  |  | EC50 [4]: 900 nM
CC(=O)N[C@@H](CC(=O)O)C(=O)N[C@@H](Cc1ccccc1)C(=O)N[C@@H](CO)C(=O)N[C@@H](C)C(=O)NCC#N [compound 6, (4S,7S,10S,13S)-13-acetamido-10-benzyl-1-cyano-7-(hydroxymethyl)-4-methyl-3,6,9,12-tetraoxo-2,5,8,11-tetraazapentadecan-15-oic acid] (Ac-DFSA-NHCH2CN) |  | 74 ± 29 | 
CC(C)C[C@H](NC(=O)OCc1ccccc1)C(=O)N[C@@H](C[C@@H]1CCNC1=O)C(O)S(=O)(=O)[O-].[Na+] (stereo partly shown) [GC376, reference compound] |  |  | inhibition rate ([1]; pH 7.5): below 50%
CC(=O)N[C@@H](Cc1ccc(O)cc1)C(=O)N[C@@H](Cc1ccccc1)C(=O)N[C@@H](Cc1ccc(O)cc1)C(=O)N[C@@H](C)C(=O)NCC#N [compound 3, (S)-2-acetamido-N-((S)-1-(((S)-1-(((S)-1-((cyanomethyl)amino)-1-oxopropan-2-yl)amino)-3-(4-hydroxyphenyl)-1-oxopropan-2-yl)amino)-1-oxo-3-phenylpropan-2-yl)-3-(4-hydroxyphenyl)propanamide] (Ac-YFYA-NHCH2CN) |  | 79 ± 15 | 
CC[C@H](C)[C@H](NC(=O)[C@@H](NC(=O)[C@H](CCSC)NC(C)=O)C(C)C)C(=O)N[C@@H](C)C(=O)NCC#N [compound 2, (2S,3S)-2-((S)-2-((S)-2-acetamido-4-(methylthio)butanamido)-3-methylbutanamido)-N-((S)-1-((cyanomethyl)amino)-1-oxopropan-2-yl)-3-methylpentanamide] (Ac-MVIA-NHCH2CN) |  | 132 | 
CC[C@H](C)[C@H](NC(=O)[C@@H](NC(C)=O)C(C)C)C(=O)N[C@@H](C)C(=O)NCC#N [compound 9, (2S,3S)-2-((S)-2-acetamido-3-methylbutanamido)-N-((S)-1-((cyanomethyl)amino)-1-oxopropan-2-yl)-3-methylpentanamide] |  | 400 | 
CC(C)c1nc(CN(C)C(=O)N[C@H](C(=O)N[C@@H](Cc2ccccc2)C[C@H](O)[C@H](Cc2ccccc2)NC(=O)OCc2cncs2)C(C)C)cs1 [Ritonavir, reference compound] | < 50 |  | 
